Like-named read-outs stand apart in the source and are kept apart here.
Key:
P. falciparum strain 3D7 = experiment: Asexual blood stage 3H-hypoxanthine incorporation assay, 3D7; type: cell-based, Plasmodium falciparum
Description: (§1) The 48-h assay was carried out in a 96-well format following standard methods using the ^3H-hypoxanthine incorporation assay. The raw EC50 values corresponding to this assay can be found in Supplementary Data 3. Briefly, this assay relies on the parasite incorporation of labelled hypoxanthine that is proportional to P. falciparum growth. A culture of parasitized RBCs (0.5% parasitemia with a percentage of ring stage higher than 70% of total parasitemia, 2.0% haematocrit) in RPMI-1640, […] and 5 μM hypoxanthine was exposed to drug serial dilutions. Plates were incubated for 24 h at 37 °C, 5% CO2, 5% O2 and 90% N2. After 24 h of incubation, ^3H-hypoxanthine was added and plates were incubated for an additional 24-h period. After that, parasites were harvested on a glass fibre filter using a TOMTEC Cell Harvester 96. Filters were dried and melt-on scintillator sheets were used to determine the incorporation of ^3H-hypoxanthine. Radioactivity was measured using a microbeta counter. Data were normalized using the incorporation of the positive (parasitized RBCs without drug) and negative (same culture with artesunate at 2 μM) controls. All assays were conducted in triplicate using three independently grown cultures, and EC50 values were determined using the XLfit add-in module for Excel (version 2.3.1) from Grafit (version 5.3.1.3), where parameter h is the assay hill slope, x is the compound concentration and y is the inhibition of growth effect. The XLfit equation is: […]

[1] = system: ProRS (prolyl t-RNA synthetase L482H, parent Dd2); experiment: Cross-resistance EC50 assay, ProRS; type: cell-based; conditions: Plasmodium falciparum, SYBR green 72 hour assay, synchronized parasites, 384-well format
Excerpt: (§2) To evaluate potential overlapping activity against known antimalarial drug targets, we performed dose-response studies with each compound against our assembled set of drug-resistant lines and their corresponding parents, in an asexual blood stage proliferation assay (Table 1). Comparisons were made to the drug-sensitive strain 3D7 when a parent was unavailable (TM90C2A, W2 and Dd2). As laboratories conducted EC50 assays with different strains and protocols, all comparisons were made between assays from the same laboratory and under the same assay conditions. Compounds displaying >5-fold EC50 shifts relative to the parent or sensitive strain were flagged as having potentially non-novel targets. Average fold shifts per strain ranged from 0.82 to 2.34, with a median of 1.23 indicating there was not common resistance to any one resistant clone. No resistance patterns were observed when classifying the compounds based on chemical structure, but this was not surprising given the diversity of compounds chosen. On the other hand, given that these confirmed compounds were derived from larger unconfirmed hit lists to which some filtration criteria may have been applied (for example, elimination of obvious dihydrofolate reductase inhibitors[32]), some[10][11][12][13] pre-existing bias may exist in the set. […]
(§3) Alternatively, a SYBR Green-based proliferation approach was used for the 72-h assay, as previously described. Briefly, a culture of either synchronized or asynchronous parasitized RBCs (0.3% parasitemia and 4% haematocrit) in screening medium (identical to supplemented medium above except no serum was added) was exposed to serial drug dilutions. Plates were incubated at 37 °C and gassed with 93% N2, 4% CO2 and 3% O2 for 72 h. Following incubation, 10 × SYBR Green I (Invitrogen; supplied in 10,000 × concentration) in lysis buffer ([…], 5 mM EDTA, 0.16% Saponin wt per vol and 1.6% Triton X vol per vol) was added to the wells and the plates were incubated overnight at room temperature before plate reading. EC50 assays were repeated three times, taking the average EC50 value from each assay set, and removing any outliers using a single iteration of Grubbs' test, eliminating values with z-scores above the critical z-value (α=0.05). The raw EC50 values for synchronized parasites assayed in a 384-well format are listed in Supplementary Data 4. The raw EC50 values for asynchronous parasites assayed in a 96 or 1536-well format are listed in Supplementary Data 5.
(§4) EC50 values for each strain were compared with those of the corresponding parent strain to determine fold-shift changes and identify resistance. To minimize the cause variance between assays, all comparisons were conducted between strains assayed under identical conditions. A one-way ANOVA followed by a Dunnet's post-test was conducted in GraphPad Prism to identify significant changes between the parent and resistant strain.

[2] = system: GNF449-R2 (PfATP4 I203L and P990R, parent Dd2); experiment: Cross-resistance EC50 assay, GNF449-R2; type: cell-based; conditions: Plasmodium falciparum, SYBR green 72 hour assay, asynchronized parasites, 96-well or 1536-well format
Excerpt: as §2, §3, §4

W2 = experiment: Cross-resistance EC50 assay, W2 parent; type: cell-based, Plasmodium falciparum; conditions: for EC50: Plasmodium falciparum, 48 h, read-out: W2F6 (PARENT) Average EC50
Excerpt: Multidrug resistance alleles, including mutations in P. falciparum chloroquine resistance transporter (pfcrt) and P. falciparum multi-drug resistance transporter 1 (pfmdr1) are very common in field isolates. Therefore, we sought to assess the degree to which pre-existing resistance alleles would contribute to a loss of potency for this diverse collection of small molecule compounds. Fifteen clones derived from three main parent lines were chosen to maximize diversity in mutated pathways and genetic backgrounds, thus representing the variety of resistance seen in the field: 3D7 (ref. [23]), W2 (ref. [24]) or Dd2 (ref. [25]). The 3D7 line originates from the clone of a Netherlands clinical isolate strain[23][26] and is generally considered to be drug sensitive, though it does convey resistance to sulfadoxine. Conversely, W2 (ref. [24], [27]) and Dd2 (ref. [25]) are multi-drug-resistant lines originating from the Indochina III/CDC isolate, which contain point mutations in pfcrt as well as amplifications in pfmdr1 and GTP cyclohydrolase.
To evaluate potential overlapping activity against known antimalarial drug targets, we performed dose-response studies with each compound against our assembled set of drug-resistant lines and their corresponding parents, in an asexual blood stage proliferation assay (Table 1). Comparisons were made to the drug-sensitive strain 3D7 when a parent was unavailable (TM90C2A, W2 and Dd2). As laboratories conducted EC50 assays with different strains and protocols, all comparisons were made between assays from the same laboratory and under the same assay conditions. Compounds displaying >5-fold EC50 shifts relative to the parent or sensitive strain were flagged as having potentially non-novel targets. Average fold shifts per strain ranged from 0.82 to 2.34, with a median of 1.23 indicating there was not common resistance to any one resistant clone. No resistance patterns were observed when classifying the compounds based on chemical structure, but this was not surprising given the diversity of compounds chosen. On the other hand, given that these confirmed compounds were derived from larger unconfirmed hit lists to which some filtration criteria may have been applied (for example, elimination of obvious dihydrofolate reductase inhibitors[32]), some[10][11][12][13] pre-existing bias may exist in the set.
as §1
Alternatively, a SYBR Green-based proliferation approach was used for the 72-h assay, as previously described. […]

[3] = Plasmodium falciparum, 3D7, asexual stage, P. falciparum 3D7, read-out: 3D7 EC50

SMILES	EC50 (P. falciparum strain 3D7; [3]) [nM]	EC50 ([1]; strain ProRS (Dd2 parent)) [nM]	EC50 [2] [µM]	EC50 (W2) [nM]	EC50 (P. falciparum strain 3D7; asexual stage, P. falciparum 3D7, read-out: 3D7 EC50) [nM]	EC50 ([1]; DD2, ProRS strain) [nM]	EC50 (P. falciparum strain 3D7; Plasmodium falciparum, 3D7, read-out: 3D7 EC50) [nM]	potency against W2 strains (W2; compared with 3D7)
CN1CCN(c2ccc(Nc3c4ccccc4nc4ccccc34)cc2)CC1 [MMV006172]	95	125	0.31	227				
CCC(C)NCC(O)(c1ccc(Cl)cc1)c1ccc(Cl)cc1 (centres unmarked) [MMV665928]	494	360	0.16	137				
OC(CNC1CCCCC1)Cn1c2ccc(I)cc2c2cc(I)ccc21 (centres unmarked) [MMV665882]	72.7	25	0.028	26				
Brc1ccc(Nc2nc3ccccc3nc2Nc2ccc(Br)cc2)cc1 [MMV007224]	222	298	0.717	288				
Cc1nc2ccc3ccc(CNc4ccc(C(=O)CC(CCC(=O)O)C(=O)O)cc4)cc3c2c(=O)[nH]1.Cl (centres unmarked) [MMV027634]	23		0.204	62				
CNCc1ccc2nc(-c3coc(Cc4cc(Cl)ccc4OCC(C)C)n3)[nH]c2c1.Cl.Cl [MMV026596]	346	349	0.307	645				
COc1ccccc1CNC(=O)CCn1c(=O)[nH]c2ccsc2c1=O [MMV019066]	1670	42	0.008	1270	1670			
CN(C)CCCNCc1ccc(-c2ccc(Cl)c(Cl)c2)o1 [MMV673964]	607		1.05	561		315		
Cc1c(C)n(Cc2ccc(F)cc2)c2ccc(C(=O)NCc3ccco3)cc12 [MMV008149]	770	67	1.36	805				
Nc1ccc(-c2nc3cc(Cc4ccc5[nH]c(-c6ccc(N)cc6)nc5c4)ccc3[nH]2)cc1 [MMV665943]	316	416	0.588	191				
COc1ccc(C(=O)C2CC2c2ccc(Cl)cc2)cc1 (centres unmarked) [MMV665924]	820	966	1.29	1380				
c1cncc(-c2cc(N3CCC(CN4CCOCC4)CC3)nc(-c3ccncc3)n2)c1 [MMV668399]	83		0.938	164				
Cc1ccc(S(=O)(=O)n2cc(-c3ccnc(N)c3)c3cc(Br)cnc32)cc1 [MMV024114]	265	669	3.34	1050				
Cl.c1ccc2c(NCCCCCCNc3c4c(nc5ccccc35)CCCC4)c3c(nc2c1)CCCC3 [MMV019555]		230	0.262	491			87.3	
CN(C)CCCN(C)C(=O)C1Cc2cc(-c3ccccc3)ccc2N1S(=O)(=O)c1ccccc1 (centres unmarked) [MMV028895]		371	2.76	153				maintained potency
